Results taken from ChEMBL document CHEMBL1126492, “Cytotoxicity of ent-udoteatrial diacetate and its analogues” (Bioorg Med Chem Lett, 1993).
Values after ≈ are worked out from the molar mass of the structure shown.

Tests used:
A549 = assay: In vitro cytotoxicity against human lung carcinoma A-549 cell line; format: functional, cell-based
KB = assay: In vitro cytotoxicity against human oral epidermoid carcinoma KB cell line; format: functional, cell-based

Compound	IC50 (A549)	IC50 (KB)
CC(=O)O[C@H]1O[C@@H]2O[C@@H](OC(C)=O)[C@@H]3CC[C@H]([C@@H]1C)[C@H]23	> 25 µg/mL	> 25 µg/mL
CC(=O)O[C@@H]1O[C@@H]2O[C@@H](OC(C)=O)[C@@H]3CC[C@H]([C@H]1CC/C=C(\C)CCC=C(C)C)[C@H]23	1.9 µg/mL (≈ 4.52 µM)	1.6 µg/mL (≈ 3.8 µM)
CC(=O)OC1O[C@@H]2O[C@@H](OC(C)=O)[C@@H]3CC[C@@H]([C@H]23)[C@H]1C (stereo not given in full)	> 25 µg/mL	> 25 µg/mL
CC(=O)O[C@H]1O[C@@H]2O[C@@H](OC(C)=O)[C@@H]3CC[C@H]([C@@H]1CC/C=C(\C)CCC=C(C)C)[C@H]23	3.9 µg/mL (≈ 9.27 µM)	3.4 µg/mL (≈ 8.08 µM)
CC(=O)O[C@H]1O[C@@H]2O[C@@H](OC(C)=O)[C@@H]3CC[C@H]([C@H]1CC/C=C(\C)CCC=C(C)C)[C@H]23	0.5 µg/mL (≈ 1.19 µM)	0.4 µg/mL (≈ 0.951 µM)
